One series deals with IL-23-induced psoriasis. Put plainly: IL-23-induced psoriasis in mice. The series is classed as in vivo, mouse. The settings on record: 60 mg/kg oral daily; for Improvement of disease symptoms: versus anti-IL-17A antibody IP. How it is done: Six-week-old female C57BL/6J mice were assigned to the following treatment groups: vehicle (n = 5), IMQ (n = 5), ETI41 (n = 4) and ETI60 (n = 5). The mice were obtained from Orient Bio to evaluate the effects of ETI41 and ETI60 on induced psoriasis-like symptoms. This study was approved by the Institutional Animal Care and Use Committee (IACUC; approval no. 2014-0007). Psoriasis was induced using Aldara cream (3M Pharmaceuticals), which was applied topically at 62.5 mg/cm² daily from the day after hair removal until the fourth day. Mice were orally administered 60 mg/kg ETI41 or ETI60 daily commencing on the second day of induction. For IL-23-induced psoriasis, the mice were assigned to the following treatment groups: vehicle (n = 5), IL-23 (n = 5), ETI41 (n = 5), ETI60 (n = 5) and anti-IL-17 Ab (n = 5). Recombinant mouse IL-23 (0.25 mg/kg; BioLegend) was administered via intradermal injection around the ear daily, starting the day after hair removal and continuing until the eighth day. Positive control mice received intraperitoneal (IP) injections of 30 mg/kg anti-mouse IL-17A antibody (BioLegend) on days 2, 5 and 8, while test group mice were administered daily oral doses of 60 mg/kg of ETI41 or ETI60. Changes in body weight and Psoriasis Area and Severity Index (PASI) scores (erythema, scaling and thickness) were recorded daily. Mice were initially anesthetized in an induction chamber with a gas mixture of 4% isoflurane in 70:30 […] and O2, delivered at a flow rate of 0.8 l/min. Subsequently, the isoflurane concentration was reduced to 2%, and the mice were euthanized under anesthesia via endotracheal intubation. Skin samples were collected, fixed and stained with hematoxylin and eosin for histological analysis. Dermal and epidermal thicknesses were measured using a Leica DMi8 microscope (Leica). Immunohistochemical analyses were performed using primary antibodies against CD68 (R&D Systems, MAB101141), Ki-67 (Cell Signaling Technology, 12202), IL-17A (Novus Biologicals, NBP1-72027) and IL-23 (Novus Biologicals, NBP1-76697), followed by detection using biotinylated secondary antibodies (Vector Laboratories) and diaminobenzidine (Vector Laboratories) visualization. Fluorescence measurements for IL-23-induced psoriasis were performed using primary antibodies against CD68 and Ki-67, followed by Alexa Fluor-conjugated secondary antibodies (Life Technologies). Fluorescence was analyzed using a Leica DMi8 microscope.
Anti-IL17A antibody (Ab, 60 µg) was administered by IP injection as a positive control on days 2, 5 and 8. […] CD68 and Ki-67 expression patterns were determined in skin sections from a representative of each group using immunofluorescence. i Ear skin and epidermis thickness, CD68 expression and percentage of Ki-67 cells were examined from 4’,6-diamidino-2-phenylindole-stained cells. Statistical differences between the induced case and other cases were analyzed and verified using a one-tailed Student’s t-test (*P < 0.05, **P < 0.01, ***P < 0.001).
Next, we investigated the therapeutic efficacy of ETI41 and ETI60 in an IL-23-induced mouse model of psoriasis. Psoriasis was induced through intradermal injections of recombinant murine IL-23. As a positive control, an IL-17A antibody was administered intraperitoneally at a dose of 30 mg/kg on days 2, 5 and 8 (Fig. 4f). ETI41 or ETI60 was orally administered daily at a dose of 60 mg/kg. […] These findings indicate that ETI41 and ETI60 effectively alleviate the progression of psoriasis, either through direct involvement of TLR7 or through an indirect involvement of the IL-23–Th17 axis.

The subject of another series is SLE in MRL/lpr mice. Put plainly: MRL/lpr mouse model of SLE. The following applies: 30 mg/kg oral daily for 39 days; for Anti-dsDNA antibodies / Antinuclear antibody (ANA) / IgG in the kidney: compared with HCQ 60 mg/kg; for Alopecia and skin rashes: compared with vehicle and HCQ. In kind it is in vivo. How it is done: MRL/MpJ-Fas^lpr/J lupus-prone mice were purchased from Jackson Laboratory to evaluate the effects of ETI41 and ETI60 on the pathophysiology of genetic SLE. This study was approved by the IACUC, Ajou University (approval no. 2019-0046). Fourteen-week-old mice were assigned to the following treatment groups: vehicle (n = 3), ETI60 (n = 3), ETI41 (n = 4) and HCQ (n = 3). These groups were administered daily oral doses of 30 mg/kg ETI41 or ETI60, or 60 mg/kg HCQ for 39 days. All compounds were dissolved in a vehicle comprising ethanol, polyethylene glycol (PEG400) and distilled water at a 1:4:5 ratio. The body weights of the mice were measured every 3 days. Mice were anesthetized in an induction chamber with a gas mixture of 4% isoflurane in 70:30 […] and O2, delivered at a flow rate of 0.8 l/min. Upon completion of the treatment period, paired axillary and popliteal lymph nodes were collected and weighed. Blood samples were taken and maintained in BD Microtainer SST tubes (BD Biosciences), with serum isolated through centrifugation at 3,393g for 30 min at 4 °C. Serum markers, including complement component C3, ANA, anti-dsDNA and total IgG, were evaluated using ELISA kits (MyBioSource). Renal IgG levels were monitored by western blotting using anti-mouse IgG (Thermo Fisher Scientific) and β-actin antibodies (Bethyl Laboratories). Statistical significance among groups was analyzed using IBM SPSS Statistics (v.25.0; IBM Corporation), with statistical significance set at P < 0.05.
Fig. 5 Therapeutic efficacy of ETI41 and ETI60 in SLE mouse model. a Summary of the experimental validation of ETI41 and ETI60 in the MRL/lpr female mouse model of SLE. […] Statistical differences between the induced case and other cases were analyzed and verified using a one-tailed Student’s t-test (*P < 0.05, **P < 0.01, ***P < 0.001).

The structures appear in SMILES notation. Like-named read-outs stand apart in the source and are kept apart here.

This is an account of results in article PMC12508057, “Discovery of ETI41 and ETI60: novel selective endosomal Toll-like receptor inhibitors for the treatment of autoimmune diseases” (Experimental & Molecular Medicine, 2025).

With `Cc1cc2c(N)c3c(nc2n1CCCN(C)C)CCCCCC3` [ETI41], in the series on IL-23-induced psoriasis, the Body weight entry is “without significant differences”, the CD68 expression result is reported as “significantly decreased”, the Ear thickness entry is “significantly decreased” and the Epidermal thickness entry is “significantly decreased”. For the same molecule, in the series with IL-23-induced psoriasis, the Ki-67 keratinocyte proliferation result is on record as “significantly decreased” and the “Improvement of disease symptoms” value was “comparable to or better than the anti-IL-17A antibody”. Besides, in the series on SLE in MRL/lpr mice, the Body weight result is reported as “prevented weight gain or loss”, the Lymph node weights entry was “notably lower”, the Anti-dsDNA antibodies result is reported as “reduced” and the “Antinuclear antibody (ANA)” value is given as “reduced”. In the series with SLE in MRL/lpr mice, the “IgG in the kidney” value is reported as “reduced”; the “Alopecia and skin rashes” value is listed as “substantially reduced”. Also, under “doses ranging from 150 to 300 mg/kg”, the Toxicity tests entry is given as “confirmed their safety”.
Consider `COc1ccc2c3c(N)c4c(nc3n(CCCN(C)C)c2c1)CCCC4` [ETI60], for which, in the series with IL-23-induced psoriasis, the Body weight result is “without significant differences”, the CD68 expression entry is listed as “significantly decreased”, the Ear thickness entry was “significantly decreased” and the Epidermal thickness result is “significantly decreased”. Moreover, in the series with IL-23-induced psoriasis, the Ki-67 keratinocyte proliferation entry was “significantly decreased” and the “Improvement of disease symptoms” value is “comparable to or better than the anti-IL-17A antibody”. Besides, in the series with SLE in MRL/lpr mice, the Body weight entry is on record as “prevented weight gain or loss”, the Lymph node weights result is reported as “notably lower”, the Anti-dsDNA antibodies entry is “reduced” and the “Antinuclear antibody (ANA)” value is “reduced”. In addition, in the series on SLE in MRL/lpr mice, the “IgG in the kidney” value is recorded as “reduced”; the “Alopecia and skin rashes” value is “substantially reduced”. The “Complement C3 levels” value in the series with SLE in MRL/lpr mice (serum) was “increased”. Moreover, the Toxicity tests result (in vivo) was “confirmed their safety”.
